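Values below derive from 48-hour exposures of cells grown in 96-well plates, with endpoints linearly interpolated between the two concentrations bracketing the appropriate inhibition level. The concentration for 50% growth inhibition is given as GI50.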 Active and inactive are the calls of the source. Rule as the data show it: active = GI50 up to about 1.1 µM and inactive = higher.
Columns and labels:
Experiment in all cases: DTP human tumour cell line panel, 48 h
[1] = tested on: LOX IMVI
[2] = tested on: DU-145
[3] = tested on: SN12C
[4] = tested on: SK-MEL-2
[5] = tested on: SNB-75
[6] = tested on: SK-MEL-5
[7] = tested on: PC-3
[8] = tested on: NCI-H522
[9] = tested on: ACHN
[10] = tested on: KM12
[11] = tested on: 786-0
[12] = tested on: UACC-257
[13] = tested on: Hs-578T
[14] = tested on: SW-620
[15] = tested on: NCI-H460
[16] = tested on: UO-31
[17] = tested on: SK-MEL-28
[18] = tested on: COLO 205
[19] = tested on: OVCAR-4
[20] = tested on: HCC 2998
[21] = tested on: RPMI-8226
[22] = tested on: HCT-116
[23] = tested on: SF-295
[24] = tested on: MDA-MB-435
[25] = tested on: HOP-62
[26] = tested on: A498
[27] = tested on: CAKI-1
[28] = tested on: UACC-62
[29] = tested on: K562
[30] = tested on: BT-549
[31] = tested on: MDA-MB-231
[32] = tested on: OVCAR-8
[33] = tested on: NCI/ADR-RES
[34] = tested on: U-251
[35] = tested on: MOLT-4
[36] = tested on: HL-60
[37] = tested on: MCF7
[38] = tested on: HCT-15
[39] = tested on: SNB-19
[40] = tested on: NCI-H23
[41] = tested on: NCI-H226
[42] = tested on: T47D
[43] = tested on: OVCAR-3
[44] = tested on: SF-268
[45] = tested on: Malme-3M
[46] = tested on: SR
[47] = tested on: MDA-N
[48] = tested on: OVCAR-5
[49] = tested on: HT-29
[50] = tested on: TK-10
[51] = tested on: IGROV-1
[52] = tested on: EKVX
[53] = tested on: SK-OV-3
[54] = tested on: CCRF-CEM
[55] = tested on: A549
[56] = tested on: SF-539
[57] = tested on: M14
[58] = tested on: RXF 393

CC(C)(C)C1CCC(=O)/C(=C/CC2CC(=O)N(c3ccccc3)C(=O)C2)C1 (centres undefined)
GI50 [1]: 13.7 µM (inactive) | GI50 [2]: 19.2 µM (inactive) | GI50 [3]: 17.5 µM (inactive) | GI50 [4]: 19.4 µM (inactive) | GI50 [5]: 21.9 µM (inactive) | GI50 [6]: 16.4 µM (inactive) | GI50 [7]: 27.5 µM (inactive) | GI50 [8]: 18.9 µM (inactive) | GI50 [9]: 19.9 µM (inactive) | GI50 [10]: 18.5 µM (inactive) | GI50 [11]: 19.8 µM (inactive) | GI50 [12]: 14.7 µM (inactive) | GI50 [13]: 33.1 µM (inactive) | GI50 [14]: 23.4 µM (inactive) | GI50 [15]: 16.6 µM (inactive) | GI50 [16]: 16.6 µM (inactive) | GI50 [17]: 21.2 µM (inactive) | GI50 [18]: 20.8 µM (inactive) | GI50 [19]: 32.7 µM (inactive) | GI50 [20]: 23.8 µM (inactive) | GI50 [21]: 18.7 µM (inactive) | GI50 [22]: 14.8 µM (inactive) | GI50 [23]: 47.8 µM (inactive) | GI50 [24]: 23.8 µM (inactive) | GI50 [25]: 30.2 µM (inactive) | GI50 [26]: 24.5 µM (inactive) | GI50 [27]: 20.9 µM (inactive) | GI50 [28]: 14.5 µM (inactive) | GI50 [29]: 19.5 µM (inactive) | GI50 [30]: 20.4 µM (inactive) | GI50 [31]: 44 µM (inactive) | GI50 [32]: 19.8 µM (inactive) | GI50 [33]: 17.8 µM (inactive) | GI50 [34]: 14.9 µM (inactive) | GI50 [35]: 34.1 µM (inactive) | GI50 [36]: 26.8 µM (inactive) | GI50 [37]: 19.3 µM (inactive) | GI50 [38]: 15.5 µM | GI50 [39]: 22 µM (inactive) | GI50 [40]: 17.8 µM (inactive) | GI50 [41]: 16.1 µM (inactive) | GI50 [42]: 21.8 µM (inactive) | GI50 [43]: 23.1 µM (inactive) | GI50 [44]: 20.1 µM (inactive) | GI50 [45]: 18.6 µM (inactive) | GI50 [46]: 10.3 µM (inactive) | GI50 [47]: 22.6 µM (inactive) | GI50 [48]: 17.4 µM (inactive) | GI50 [49]: 19.8 µM (inactive) | GI50 [50]: 17.5 µM (inactive) | GI50 [51]: 19.7 µM (inactive) | GI50 [52]: 26 µM (inactive)

COc1cc(NCC2COc3c(ccc(OC)c3OC)C2=O)c([N+](=O)[O-])cc1OC (centres undefined)
GI50 [1]: > 100 µM (inactive) | GI50 [2]: > 100 µM (inactive) | GI50 [3]: 70.1 µM (inactive) | GI50 [4]: > 100 µM (inactive) | GI50 [5]: 60.1 µM (inactive) | GI50 [6]: 44.3 µM (inactive) | GI50 [7]: 94 µM (inactive) | GI50 [8]: 55.7 µM (inactive) | GI50 [9]: > 100 µM (inactive) | GI50 [10]: > 100 µM (inactive) | GI50 [53]: > 100 µM (inactive) | GI50 [11]: 15.6 µM (inactive) | GI50 [12]: > 100 µM (inactive) | GI50 [13]: 95.3 µM (inactive) | GI50 [14]: > 100 µM (inactive) | GI50 [15]: 35.2 µM (inactive) | GI50 [54]: 53.2 µM (inactive) | GI50 [16]: > 100 µM (inactive) | GI50 [55]: > 100 µM (inactive) | GI50 [17]: > 100 µM (inactive) | GI50 [18]: 54.7 µM (inactive) | GI50 [19]: 82.4 µM (inactive) | GI50 [21]: 12.3 µM (inactive) | GI50 [22]: > 100 µM (inactive) | GI50 [23]: 66.1 µM (inactive) | GI50 [24]: > 100 µM (inactive) | GI50 [25]: > 100 µM (inactive) | GI50 [26]: > 100 µM (inactive) | GI50 [27]: > 100 µM (inactive) | GI50 [28]: 77.8 µM (inactive) | GI50 [29]: 31 µM (inactive) | GI50 [30]: > 10 µM (inactive) | GI50 [31]: 79.1 µM (inactive) | GI50 [32]: > 100 µM (inactive) | GI50 [33]: > 100 µM (inactive) | GI50 [56]: > 100 µM (inactive) | GI50 [34]: > 100 µM (inactive) | GI50 [35]: 16.4 µM (inactive) | GI50 [36]: 36.8 µM (inactive) | GI50 [37]: 39.3 µM (inactive) | GI50 [38]: > 100 µM | GI50 [39]: > 100 µM (inactive) | GI50 [57]: > 100 µM (inactive) | GI50 [40]: > 100 µM (inactive) | GI50 [41]: > 100 µM (inactive) | GI50 [42]: 26.1 µM (inactive) | GI50 [43]: > 100 µM (inactive) | GI50 [44]: 67.3 µM (inactive) | GI50 [46]: 30.8 µM (inactive) | GI50 [47]: > 100 µM (inactive) | GI50 [48]: > 100 µM (inactive) | GI50 [49]: > 100 µM (inactive) | GI50 [50]: > 100 µM (inactive) | GI50 [51]: > 100 µM (inactive) | GI50 [52]: 95.1 µM (inactive)

O=CNc1ncn[nH]1
GI50 [1]: > 100 µM (inactive) | GI50 [2]: > 100 µM (inactive) | GI50 [3]: > 100 µM (inactive) | GI50 [4]: > 100 µM (inactive) | GI50 [5]: > 100 µM (inactive) | GI50 [6]: > 100 µM (inactive) | GI50 [7]: > 100 µM (inactive) | GI50 [8]: > 100 µM (inactive) | GI50 [9]: > 100 µM (inactive) | GI50 [10]: > 100 µM (inactive) | GI50 [53]: > 100 µM (inactive) | GI50 [11]: > 100 µM (inactive) | GI50 [12]: > 100 µM (inactive) | GI50 [13]: > 100 µM (inactive) | GI50 [14]: > 100 µM (inactive) | GI50 [15]: > 100 µM (inactive) | GI50 [54]: > 100 µM (inactive) | GI50 [16]: > 100 µM (inactive) | GI50 [55]: > 100 µM (inactive) | GI50 [17]: > 100 µM (inactive) | GI50 [18]: > 100 µM (inactive) | GI50 [19]: > 100 µM (inactive) | GI50 [21]: > 100 µM (inactive) | GI50 [22]: > 100 µM (inactive) | GI50 [23]: > 100 µM (inactive) | GI50 [24]: > 100 µM (inactive) | GI50 [25]: > 100 µM (inactive) | GI50 [26]: > 100 µM (inactive) | GI50 [27]: > 100 µM (inactive) | GI50 [28]: > 100 µM (inactive) | GI50 [29]: > 100 µM (inactive) | GI50 [30]: > 100 µM (inactive) | GI50 [31]: > 100 µM (inactive) | GI50 [32]: > 100 µM (inactive) | GI50 [33]: > 100 µM (inactive) | GI50 [56]: > 100 µM (inactive) | GI50 [34]: > 100 µM (inactive) | GI50 [35]: > 100 µM (inactive) | GI50 [36]: > 100 µM (inactive) | GI50 [37]: > 100 µM (inactive) | GI50 [38]: > 100 µM | GI50 [39]: > 100 µM (inactive) | GI50 [57]: > 100 µM (inactive) | GI50 [40]: > 100 µM (inactive) | GI50 [41]: > 100 µM (inactive) | GI50 [42]: > 100 µM (inactive) | GI50 [43]: > 100 µM (inactive) | GI50 [44]: > 100 µM (inactive) | GI50 [45]: > 100 µM (inactive) | GI50 [46]: > 100 µM (inactive) | GI50 [47]: > 100 µM (inactive) | GI50 [48]: > 100 µM (inactive) | GI50 [49]: > 100 µM (inactive) | GI50 [58]: > 100 µM (inactive) | GI50 [50]: > 100 µM (inactive) | GI50 [51]: > 100 µM (inactive) | GI50 [52]: > 100 µM (inactive)
